What was measured:
Cannabinoid receptor 1 = Cannabinoid receptor 1 (Homo sapiens, UniProt P21554); type: cell membranes, Chem-1, Membrane; conditions: chem-1; also: in other assays of this panel Not Active means under 50% inhibition at 10 µM
Vasopressin V1a receptor = Vasopressin V1a receptor (Homo sapiens, UniProt P37288); type: cell membranes, Membrane; conditions: hek293; also: in other assays of this panel Not Active means under 50% inhibition at 10 µM
[1] = DRUGMATRIX: Potassium Channel [KATP] radioligand binding (ligand: [3H] Glyburide); type: cell membranes, Membrane; conditions: hit-t15; Not Active = under 50% inhibition at 10 µM
[2] = target: T1, Muscarinic acetylcholine receptor M5 (Homo sapiens, UniProt P08912); type: cell membranes, CHO-K1, Membrane; conditions: for Ki: read-out: Ki; as to all read-outs here: in other assays of this panel Not Active means under 50% inhibition at 10 µM
T1 sequence (P08912 whole entry): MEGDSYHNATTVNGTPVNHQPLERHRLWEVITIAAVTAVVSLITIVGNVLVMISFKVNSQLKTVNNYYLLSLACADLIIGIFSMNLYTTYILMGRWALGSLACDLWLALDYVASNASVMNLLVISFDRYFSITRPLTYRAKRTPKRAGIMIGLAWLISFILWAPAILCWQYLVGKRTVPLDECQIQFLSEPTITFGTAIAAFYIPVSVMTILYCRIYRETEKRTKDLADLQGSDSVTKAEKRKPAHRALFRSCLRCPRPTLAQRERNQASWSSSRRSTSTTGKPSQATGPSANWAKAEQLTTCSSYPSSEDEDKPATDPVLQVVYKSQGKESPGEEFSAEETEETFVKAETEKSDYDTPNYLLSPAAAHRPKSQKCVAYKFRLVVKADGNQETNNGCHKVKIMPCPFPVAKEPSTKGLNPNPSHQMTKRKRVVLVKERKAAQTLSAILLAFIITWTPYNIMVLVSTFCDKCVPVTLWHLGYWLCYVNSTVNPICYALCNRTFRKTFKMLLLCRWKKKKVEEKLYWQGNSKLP

[3] = target: T2, Angiotensin-converting enzyme (Oryctolagus cuniculus, UniProt P12822); type: tissue-based, Lung;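 also: enzymatic inhibition of angiotensin-converting enzyme measured with FAPGG as the substrate; in other assays of this panel Not Active means under 50% inhibition at 10 µM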
T2 sequence (P12822 whole entry): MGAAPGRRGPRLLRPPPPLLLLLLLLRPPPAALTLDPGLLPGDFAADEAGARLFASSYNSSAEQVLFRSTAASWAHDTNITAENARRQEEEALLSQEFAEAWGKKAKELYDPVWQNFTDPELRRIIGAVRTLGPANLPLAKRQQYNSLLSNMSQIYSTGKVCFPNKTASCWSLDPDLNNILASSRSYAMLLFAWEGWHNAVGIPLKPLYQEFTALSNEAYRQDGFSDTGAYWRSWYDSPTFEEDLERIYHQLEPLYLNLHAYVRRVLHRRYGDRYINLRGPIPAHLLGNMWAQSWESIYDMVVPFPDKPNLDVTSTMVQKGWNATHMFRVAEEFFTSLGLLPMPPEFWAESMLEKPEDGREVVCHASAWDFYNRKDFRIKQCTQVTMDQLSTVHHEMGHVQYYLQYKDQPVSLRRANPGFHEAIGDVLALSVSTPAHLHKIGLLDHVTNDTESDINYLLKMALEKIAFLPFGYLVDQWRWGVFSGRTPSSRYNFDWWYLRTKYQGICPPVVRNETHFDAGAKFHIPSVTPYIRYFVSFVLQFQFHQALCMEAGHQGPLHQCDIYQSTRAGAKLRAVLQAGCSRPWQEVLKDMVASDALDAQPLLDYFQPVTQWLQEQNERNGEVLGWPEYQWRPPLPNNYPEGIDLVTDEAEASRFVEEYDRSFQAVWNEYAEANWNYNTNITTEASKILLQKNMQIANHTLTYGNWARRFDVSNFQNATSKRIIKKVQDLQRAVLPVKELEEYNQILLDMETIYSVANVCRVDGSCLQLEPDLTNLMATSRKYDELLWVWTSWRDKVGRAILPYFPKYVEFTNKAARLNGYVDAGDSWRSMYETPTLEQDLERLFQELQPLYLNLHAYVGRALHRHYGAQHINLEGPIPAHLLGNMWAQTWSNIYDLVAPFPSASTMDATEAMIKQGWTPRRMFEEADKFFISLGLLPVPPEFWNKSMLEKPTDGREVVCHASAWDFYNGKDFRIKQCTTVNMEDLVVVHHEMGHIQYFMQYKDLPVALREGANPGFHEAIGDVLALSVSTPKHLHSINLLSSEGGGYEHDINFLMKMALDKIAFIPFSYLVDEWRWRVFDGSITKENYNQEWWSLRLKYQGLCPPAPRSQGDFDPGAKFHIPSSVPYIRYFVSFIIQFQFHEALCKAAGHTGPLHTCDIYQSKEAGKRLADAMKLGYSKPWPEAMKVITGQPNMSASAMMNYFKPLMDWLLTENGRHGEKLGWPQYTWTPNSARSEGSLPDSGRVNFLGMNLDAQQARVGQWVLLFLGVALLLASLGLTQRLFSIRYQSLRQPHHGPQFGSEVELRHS

[4] = DRUGMATRIX: Calcium Channel Type L, Benzothiazepine radioligand binding (ligand: [3H] Diltiazem); type: cell membranes, Rattus norvegicus, Wistar, Brain, Membrane; conditions: Not Active = under 50% inhibition at 10 µM
[5] = target: T3, Type-2 angiotensin II receptor (Homo sapiens, UniProt P50052); type: cell-based; conditions: cho-k1; also: in other assays of this panel Not Active means under 50% inhibition at 10 µM
T3 sequence (P50052 whole entry): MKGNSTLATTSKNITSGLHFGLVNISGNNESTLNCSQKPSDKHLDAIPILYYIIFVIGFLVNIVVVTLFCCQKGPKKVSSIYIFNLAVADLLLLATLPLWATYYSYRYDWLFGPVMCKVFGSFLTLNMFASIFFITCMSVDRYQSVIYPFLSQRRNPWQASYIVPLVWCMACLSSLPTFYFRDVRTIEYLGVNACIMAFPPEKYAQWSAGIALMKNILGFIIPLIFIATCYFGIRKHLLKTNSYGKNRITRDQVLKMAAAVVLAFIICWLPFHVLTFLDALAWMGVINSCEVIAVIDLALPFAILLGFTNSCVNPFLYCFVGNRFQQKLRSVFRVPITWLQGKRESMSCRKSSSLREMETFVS

Chain of Cannabinoid receptor 1 (P21554 whole entry): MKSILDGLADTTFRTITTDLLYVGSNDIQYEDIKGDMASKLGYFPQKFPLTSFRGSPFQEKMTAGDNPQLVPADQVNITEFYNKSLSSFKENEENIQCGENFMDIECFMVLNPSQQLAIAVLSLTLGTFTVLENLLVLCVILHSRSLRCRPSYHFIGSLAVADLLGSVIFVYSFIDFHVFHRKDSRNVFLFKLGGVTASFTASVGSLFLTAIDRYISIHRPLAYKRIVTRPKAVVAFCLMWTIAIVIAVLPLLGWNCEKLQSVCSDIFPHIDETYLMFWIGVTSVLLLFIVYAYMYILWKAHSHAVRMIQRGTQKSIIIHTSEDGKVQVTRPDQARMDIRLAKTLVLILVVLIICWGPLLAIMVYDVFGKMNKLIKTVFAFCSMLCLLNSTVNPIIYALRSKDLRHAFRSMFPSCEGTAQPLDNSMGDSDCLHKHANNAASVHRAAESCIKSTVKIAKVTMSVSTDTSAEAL
Chain of Vasopressin V1a receptor (P37288 whole entry): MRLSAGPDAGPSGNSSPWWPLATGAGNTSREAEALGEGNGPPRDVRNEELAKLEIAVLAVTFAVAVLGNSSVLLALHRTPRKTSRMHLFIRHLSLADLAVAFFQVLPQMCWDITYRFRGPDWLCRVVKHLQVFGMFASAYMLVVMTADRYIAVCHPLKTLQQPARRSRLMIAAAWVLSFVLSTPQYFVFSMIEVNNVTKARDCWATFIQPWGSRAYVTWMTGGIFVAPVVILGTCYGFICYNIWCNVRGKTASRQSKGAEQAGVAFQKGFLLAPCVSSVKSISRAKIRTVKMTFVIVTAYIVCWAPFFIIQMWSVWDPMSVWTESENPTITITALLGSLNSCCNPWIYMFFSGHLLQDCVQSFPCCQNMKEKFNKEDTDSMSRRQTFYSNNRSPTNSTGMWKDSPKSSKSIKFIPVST

| SMILES | IC50 (Cannabinoid receptor 1) | IC50 (Vasopressin V1a receptor) | IC50 [1] | Ki [1] | IC50 ([2]; cho-k1) | IC50 [3] | IC50 [4] | Ki [4] | IC50 [5] | IC50 ([4]; read-out: IC50) | Ki ([4]; read-out: Ki) | IC50 ([2]; read-out: IC50) | Ki [2] |
| --- | --- | --- | --- | --- | --- | --- | --- | --- | --- | --- | --- | --- | --- |
| Brc1c(NC2=NCCN2)ccc2nccnc12 [BRIMONIDINE] | Not Active | Not Active | Not Active | Not Active | Not Active | Not Active | Not Active | Not Active | Not Active |  |  |  |  |
| CN(C)[C@@H]1C(O)=C(C(N)=O)C(=O)[C@@]2(O)C(O)=C3C(=O)c4c(O)ccc(Cl)c4[C@@](C)(O)[C@H]3C[C@@H]12 [CHLORTETRACYCLINE] | Not Active | Not Active | Not Active | Not Active | Not Active | Not Active | Not Active | Not Active | Not Active |  |  |  |  |
| CN/C(=N\CCSCc1nc[nH]c1C)NC#N [CIMETIDINE] | Not Active | Not Active | Not Active | Not Active | Not Active | Not Active | Not Active | Not Active | Not Active |  |  |  |  |
| COc1cc(N)c(Cl)cc1C(=O)NC1CCN(CCCOc2ccc(F)cc2)CC1OC (centres undefined) [CISAPRIDE] | Not Active | Not Active | Not Active | Not Active | Not Active | Not Active |  |  | Not Active | 802 nM | 713 nM |  |  |
| CCC(=O)O[C@]1(C(=O)CCl)[C@@H](C)C[C@H]2[C@@H]3CCC4=CC(=O)C=C[C@]4(C)[C@@]3(F)[C@@H](O)C[C@@]21C [CLOBETASOL PROPIONATE] | Not Active | Not Active | Not Active | Not Active | Not Active | Not Active | Not Active | Not Active | Not Active |  |  |  |  |
| O=C1CN=C(c2ccccc2Cl)c2cc([N+](=O)[O-])ccc2N1 [CLONAZEPAM] | Not Active | Not Active | Not Active | Not Active | Not Active | Not Active | Not Active | Not Active | Not Active |  |  |  |  |
| Nc1ccn([C@@H]2O[C@H](CO)[C@@H](O)[C@@H]2O)c(=O)n1 [CYTARABINE] | Not Active | Not Active | Not Active | Not Active | Not Active | Not Active | Not Active | Not Active | Not Active |  |  |  |  |
| C[C@@H]1C[C@H]2[C@@H]3CCC4=CC(=O)C=C[C@]4(C)[C@@]3(F)[C@@H](O)C[C@]2(C)[C@H]1C(=O)CO [DESOXIMETASONE] | Not Active | Not Active | Not Active | Not Active | Not Active | Not Active | Not Active | Not Active | Not Active |  |  |  |  |
| C[C@@H]1C[C@H]2[C@@H]3CCC4=CC(=O)C=C[C@]4(C)[C@@]3(F)[C@@H](O)C[C@]2(C)[C@@]1(O)C(=O)CO [DEXAMETHASONE] | Not Active | Not Active | Not Active | Not Active | Not Active | Not Active | Not Active | Not Active | Not Active |  |  |  |  |
| CN(C)CC[C@@H](c1ccc(Cl)cc1)c1ccccn1 [DEXCHLORPHENIRAMINE] | Not Active | Not Active | Not Active | Not Active |  | Not Active |  |  | Not Active | 6130 nM | 5450 nM | 1040 nM | 749 nM |
| C[C@@H]1CC[C@@]2(OC1)O[C@H]1[C@@H](O)[C@H]3[C@@H]4CC[C@H]5C[C@@H](O[C@@H]6O[C@H](CO)[C@H](O[C@@H]7O[C@H](CO)C(O)[C@H](O[C@@H]8OC[C@@H](O)[C@H](O)[C@H]8O)[C@H]7O[C@@H]7O[C@H](CO)[C@H](O)[C@H](O[C@@H]8O[C@H](CO)[C@@H](O)[C@H](O)[C@H]8O)[C@H]7O)[C@H](O)[C@H]6O)[C@H](O)C[C@]5(C)[C@H]4CC[C@]3(C)[C@H]1[C@@H]2C (some centres undefined) [DIGITONIN] | Not Active | Not Active | Not Active | Not Active | Not Active | Not Active | Not Active | Not Active | Not Active |  |  |  |  |
| OC(CCCN1CCCCC1)(c1ccccc1)c1ccccc1 [DIPHENIDOL] | Not Active | Not Active | Not Active | Not Active |  | Not Active | Not Active | Not Active | Not Active |  |  | 1190 nM | 855 nM |
| C[C@H]1O[C@@H](n2cc(F)c(=O)[nH]c2=O)[C@H](O)[C@@H]1O [DOXIFLURIDINE] | Not Active | Not Active | Not Active | Not Active | Not Active | Not Active | Not Active | Not Active | Not Active |  |  |  |  |
| Cn1c(=O)c2c(ncn2CC(O)CO)n(C)c1=O (centres undefined) [DYPHYLLINE] | Not Active | Not Active | Not Active | Not Active | Not Active | Not Active | Not Active | Not Active | Not Active |  |  |  |  |
| CC[C@H]1CN2CCc3cc(OC)c(OC)cc3[C@@H]2C[C@@H]1C[C@H]1NCCc2cc(OC)c(OC)cc21 [EMETINE] | Not Active | Not Active | Not Active | Not Active | Not Active | Not Active |  |  | Not Active | 2360 nM | 2090 nM |  |  |
| C[C@@H](CO)NC(=O)[C@@H]1C=C2c3cccc4[nH]cc(c34)C[C@H]2N(C)C1 [ERGONOVINE] | Not Active | Not Active | Not Active | Not Active | Not Active | Not Active | Not Active | Not Active | Not Active |  |  |  |  |
| COC(=O)CCc1ccc(OCC(O)CNC(C)C)cc1 (centres undefined) [ESMOLOL] | Not Active | Not Active | Not Active | Not Active | Not Active | Not Active | Not Active | Not Active | Not Active |  |  |  |  |
| CCC1(C)CC(=O)NC1=O (centres undefined) [ETHOSUXIMIDE] | Not Active | Not Active | Not Active | Not Active | Not Active | Not Active | Not Active | Not Active | Not Active |  |  |  |  |
